# Assay results: PubChem BioAssay AID328 (DTP/NCI, 2004)
# Several values for one entry are separate records, joined by “and”; a condition that tells them apart may be missing. Equal entries are not always repeated. Inconclusive results and toxic doses are left out.
# System: BDF1 mice, P388 leukemia ip, median survival T/C
# Test: NCI In Vivo Anticancer Drug Screen. Data for tumor model P388 Leukemia (intraperitoneal) in B6D2F1 (BDF1) mice
# Conditions: endpoint: median survival time, higher = longer survival
# Summary of the method: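 Transplantable tumour in mice; compound vs vehicle dosing; survival scored; ratio of treated to control reported.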
# [1] = dose: 100.0 mg/kg/injection, schedule: Q04DX003 (ip), vehicle: saline
# [2] = dose: 200.0 mg/kg/injection, schedule: Q04DX003 (ip), vehicle: saline
# [3] = dose: 400.0 mg/kg/injection, schedule: Q04DX003 (ip), vehicle: saline
# [4] = dose: 100.0 mg/kg/injection, schedule: Q01DX009 (ip), vehicle: saline with Tween-80
# [5] = dose: 100.0 mg/kg/injection, schedule: Q04DX003 (ip), vehicle: saline with Tween-80
# [6] = dose: 200.0 mg/kg/injection, schedule: Q01DX009 (ip), vehicle: saline with Tween-80
# [7] = dose: 200.0 mg/kg/injection, schedule: Q04DX003 (ip), vehicle: saline with Tween-80
# [8] = dose: 400.0 mg/kg/injection, schedule: Q04DX003 (ip), vehicle: saline with Tween-80
# [9] = dose: 50.0 mg/kg/injection, schedule: Q01DX009 (ip), vehicle: saline with Tween-80
# [10] = dose: 400.0 mg/kg/injection, schedule: Q01DX009 (ip), vehicle: saline with Tween-80
# [11] = dose: 12.5 mg/kg/injection, schedule: Q01DX009 (ip), vehicle: Klucel (hydroxypropylcellulose) (HPC)
# [12] = dose: 25.0 mg/kg/injection, schedule: Q01DX009 (ip), vehicle: Klucel (hydroxypropylcellulose) (HPC)
# [13] = dose: 50.0 mg/kg/injection, schedule: Q01DX009 (ip), vehicle: Klucel (hydroxypropylcellulose) (HPC)
# [14] = dose: 100.0 mg/kg/injection, schedule: Q01DX009 (ip), vehicle: Klucel (hydroxypropylcellulose) (HPC)
# [15] = dose: 200.0 mg/kg/injection, schedule: Q01DX009 (ip), vehicle: Klucel (hydroxypropylcellulose) (HPC)
structure (smiles),measurement,setting,value
CC(=O)Nc1ccn(CC(=O)c2cccs2)c(=O)n1,T/C,"dose: 100.0 mg/kg/injection, schedule: Q01DX009 (ip), vehicle: saline",90 % of control
same,T/C,[1],86 % of control
same,T/C,"dose: 200.0 mg/kg/injection, schedule: Q01DX009 (ip), vehicle: saline",95 % of control
same,T/C,[2],86 % of control
same,T/C,"dose: 400.0 mg/kg/injection, schedule: Q01DX009 (ip), vehicle: saline",90 % of control
same,T/C,[3],100 % of control
CCOC(=O)CC(=O)N/N=C(/C)C(=O)OCC,T/C,[4],108 % of control
same,T/C,[5],88 % of control
same,T/C,[6],99 % of control
same,T/C,[7],97 % of control
same,T/C,[8],111 % of control
ClC1C(Cl)C2CC1C1OC21 (configuration not stated),T/C,"dose: 50.0 mg/kg/injection, schedule: Q01DX009 (ip), vehicle: other",101 % of control
same,T/C,"dose: 100.0 mg/kg/injection, schedule: Q01DX009 (ip), vehicle: other",100 % of control
same,T/C,"dose: 200.0 mg/kg/injection, schedule: Q01DX009 (ip), vehicle: other",100 % of control
O=C(O)CC(NC(=O)OCc1ccccc1)C(=O)OCc1ccccc1 (configuration not stated),T/C,[9],92 % of control
same,T/C,[4],111 % of control
same,T/C,[5],104 % of control
same,T/C,[6],111 % of control
same,T/C,[7],113 % of control
same,T/C,[10],100 % of control
same,T/C,[8],90 % of control
c1ccc2c(c1)CC1CCCCN1C2 (configuration not stated),T/C,[11],100 % of control
same,T/C,"dose: 12.5 mg/kg/injection, schedule: Q01DX009 (ip), vehicle: saline",100 % of control
same,T/C,[12],105 % of control
same,T/C,"dose: 25.0 mg/kg/injection, schedule: Q01DX009 (ip), vehicle: saline",90 % of control
same,T/C,"dose: 37.5 mg/kg/injection, schedule: Q04DX003 (ip), vehicle: saline",95 % of control
same,T/C,[13],100 % of control
same,T/C,"dose: 50.0 mg/kg/injection, schedule: Q01DX009 (ip), vehicle: saline",110 % of control
same,T/C,"dose: 75.0 mg/kg/injection, schedule: Q04DX003 (ip), vehicle: saline",86 % of control
ClCCn1cnc2c(SCc3ccccc3Cl)ncnc21,T/C,"dose: 25.0 mg/kg/injection, schedule: Q01DX009 (ip), vehicle: saline with Tween-80",100 % of control
same,T/C,[9],91 % of control
same,T/C,[4],108 % of control
same,T/C,[5],100 % of control
same,T/C,[8],112 % of control
CC(=O)Nc1ccc(OC(C)=O)cc1C=O,T/C,"dose: 50.0 mg/kg/injection, schedule: Q04DX002 (ip), vehicle: saline with Tween-80",111 % of control
same,T/C,"dose: 100.0 mg/kg/injection, schedule: Q04DX002 (ip), vehicle: saline with Tween-80",98 % of control
same,T/C,"dose: 200.0 mg/kg/injection, schedule: Q04DX002 (ip), vehicle: saline with Tween-80",89 % of control
O=C(SCC(NSc1ccccc1[N+](=O)[O-])C(=O)O)c1ccccc1 (configuration not stated),T/C,"dose: 12.0 mg/kg/injection, schedule: Q01DX009 (ip), vehicle: Klucel (hydroxypropylcellulose) (HPC)",105 % of control
same,T/C,[12],115 % of control
same,T/C,[13],115 % of control
same,T/C,[14],110 % of control
same,T/C,[15],105 % of control
CCOC(=O)C1C(=O)C(CN(CCCl)CCCl)C(=O)C(C(=O)OCC)C1c1ccc(O)cc1 (configuration not stated),T/C,"dose: 0.75 mg/kg/injection, schedule: Q01DX009 (ip), vehicle: Klucel (hydroxypropylcellulose) (HPC)",180 % of control
same,T/C,"dose: 1.5 mg/kg/injection, schedule: Q01DX009 (ip), vehicle: Klucel (hydroxypropylcellulose) (HPC)",190 % of control
same,T/C,"dose: 3.0 mg/kg/injection, schedule: Q01DX009 (ip), vehicle: Klucel (hydroxypropylcellulose) (HPC)",183 % of control
same,T/C,"dose: 3.13 mg/kg/injection, schedule: Q04DX003 (ip), vehicle: saline with Tween-80",153 % of control
same,T/C,"dose: 6.0 mg/kg/injection, schedule: Q01DX009 (ip), vehicle: Klucel (hydroxypropylcellulose) (HPC)",266 % of control
same,T/C,"dose: 6.25 mg/kg/injection, schedule: Q01DX009 (ip), vehicle: Klucel (hydroxypropylcellulose) (HPC)",185 % of control
same,T/C,"dose: 6.25 mg/kg/injection, schedule: Q04DX003 (ip), vehicle: Klucel (hydroxypropylcellulose) (HPC)",180 % of control
same,T/C,"dose: 6.25 mg/kg/injection, schedule: Q04DX003 (ip), vehicle: saline with Tween-80",160 % of control
same,T/C,"dose: 11.0 mg/kg/injection, schedule: Q01DX009 (ip), vehicle: Klucel (hydroxypropylcellulose) (HPC)",209 % of control
same,T/C,[11],269 % of control
same,T/C,"dose: 12.5 mg/kg/injection, schedule: Q04DX003 (ip), vehicle: Klucel (hydroxypropylcellulose) (HPC)",195 % of control
same,T/C,"dose: 12.5 mg/kg/injection, schedule: Q04DX003 (ip), vehicle: saline with Tween-80",225 % of control
same,T/C,"dose: 16.5 mg/kg/injection, schedule: Q01DX009 (ip), vehicle: Klucel (hydroxypropylcellulose) (HPC)",232 % of control
same,T/C,"dose: 20.0 mg/kg/injection, schedule: Q04DX003 (ip), vehicle: Klucel (hydroxypropylcellulose) (HPC)",105 % of control
same,T/C,[12],243 % of control and 95 % of control and 190 % of control
same,T/C,"dose: 25.0 mg/kg/injection, schedule: Q04DX003 (ip), vehicle: Klucel (hydroxypropylcellulose) (HPC)",182 % of control
same,T/C,"dose: 25.0 mg/kg/injection, schedule: Q04DX003 (ip), vehicle: saline with Tween-80",260 % of control and 267 % of control
same,T/C,"dose: 37.5 mg/kg/injection, schedule: Q01DX009 (ip), vehicle: Klucel (hydroxypropylcellulose) (HPC)",103 % of control
same,T/C,"dose: 50.0 mg/kg/injection, schedule: Q04DX003 (ip), vehicle: Klucel (hydroxypropylcellulose) (HPC)",89 % of control
same,T/C,"dose: 80.0 mg/kg/injection, schedule: Q04DX003 (ip), vehicle: Klucel (hydroxypropylcellulose) (HPC)",155 % of control
same,T/C,"dose: 118.0 mg/kg/injection, schedule: Q04DX003 (ip), vehicle: Klucel (hydroxypropylcellulose) (HPC)",160 % of control
same,T/C,"dose: 177.0 mg/kg/injection, schedule: Q04DX003 (ip), vehicle: Klucel (hydroxypropylcellulose) (HPC)",175 % of control
same,T/C,"dose: 200.0 mg/kg/injection, schedule: Q04DX003 (ip), vehicle: Klucel (hydroxypropylcellulose) (HPC)",159 % of control
same,T/C,"dose: 266.0 mg/kg/injection, schedule: Q04DX003 (ip), vehicle: Klucel (hydroxypropylcellulose) (HPC)",170 % of control
same,T/C,"dose: 400.0 mg/kg/injection, schedule: Q04DX003 (ip), vehicle: Klucel (hydroxypropylcellulose) (HPC)",180 % of control and 195 % of control
C=C1C(=O)O[C@@H]2C[C@@H](C)[C@@H]3C=CC(=O)[C@@]3(C)[C@@H](O)[C@H]12,T/C,"dose: 0.88 mg/kg/injection, schedule: Q01DX009 (ip), vehicle: saline",109 % of control
same,T/C,"dose: 1.3 mg/kg/injection, schedule: Q01DX009 (ip), vehicle: saline",113 % of control
same,T/C,"dose: 2.0 mg/kg/injection, schedule: Q01DX009 (ip), vehicle: saline + alcohol",116 % of control
same,T/C,"dose: 4.0 mg/kg/injection, schedule: Q01DX010 (ip), vehicle: other",116 % of control
same,T/C,"dose: 5.0 mg/kg/injection, schedule: Q01DX009 (ip), vehicle: saline + alcohol",116 % of control
same,T/C,"dose: 5.0 mg/kg/injection, schedule: Q01DX009 (ip), vehicle: saline with Tween-80",109 % of control
same,T/C,"dose: 5.0 mg/kg/injection, schedule: Q01DX010 (ip), vehicle: other",112 % of control
same,T/C,"dose: 6.0 mg/kg/injection, schedule: Q01DX010 (ip), vehicle: other",116 % of control
same,T/C,"dose: 8.0 mg/kg/injection, schedule: Q01DX009 (ip), vehicle: alcohol",163 % of control
same,T/C,"dose: 8.0 mg/kg/injection, schedule: Q01DX009 (ip), vehicle: saline + alcohol",168 % of control
same,T/C,"dose: 8.0 mg/kg/injection, schedule: Q01DX010 (ip), vehicle: other",116 % of control
Nc1nc(N)c2ncc(/C=C/c3ccc(Cl)c(Cl)c3)nc2n1,T/C,[5],91 % of control
same,T/C,[7],90 % of control
same,T/C,[8],108 % of control
COC(=O)CC1C(=O)C(C)(C(=O)OC)CCC1c1ccc(OC)cc1 (configuration not stated),T/C,[1],109 % of control
same,T/C,[2],109 % of control
same,T/C,[3],104 % of control
CC1CC(C)(C)N=C(C(C)(C)c2ccccc2)O1 (configuration not stated),T/C,"dose: 50.0 mg/kg/injection, schedule: Q04DX003 (ip), vehicle: saline sonified",100 % of control
same,T/C,"dose: 100.0 mg/kg/injection, schedule: Q04DX003 (ip), vehicle: saline sonified",100 % of control
same,T/C,"dose: 200.0 mg/kg/injection, schedule: Q04DX003 (ip), vehicle: saline sonified",90 % of control
Cc1cc(NC(=O)Nc2cccc(C3=NCCN3)c2)ccc1NC(=O)Nc1cccc(C2=NCCN2)c1,T/C,[4],118 % of control
same,T/C,[10],190 % of control
COc1ccc(OC)c(NC(=O)Sc2c(Cl)c(Cl)nc(Cl)c2Cl)c1,T/C,[12],123 % of control
same,T/C,[14],124 % of control
same,T/C,[15],123 % of control
